Common to all, as to assay type: cell-based
For series [1], the system named is human large bowel cancer cells (DLD1 line and HT29 line). Nature of the series: Colony formation assay. Particulars: DLD1 and HT29 lines; 50 nM; culture for 10 days; versus control miRNA; FIG. 14. The procedure: A cell suspension prepared by suspending human large bowel cancer cells (DLD1 line and HT29 line) in RPMI medium (containing 10% by volume FBS) was seeded in each well of a 6-well plate at 3×10^5 cells/well, followed by culture for 2 days. Then, the medium was changed to RPMI medium (containing no FBS), and a mixture of lipofectamin RNAiMAX Regent (final concentration in each well: 0.03 μL/ml) and hsa-miR-3065-3p (final concentration in each well: 50 nM) was added for transfection, followed by culture for 8 hours. Then, cells after transfection were recovered and suspended in RPMI medium (containing 10% by volume FBS), and were seeded in each well of a 6-well plate at 500 cells/well, followed by culture for 10 days. Thereafter, the culture supernatant was removed, and cells were fixed with methanol and then stained with crystal violet to count the formed colonies. In addition, tests were also performed under the same condition on a case where a control miRNA (SEQ ID NO: 9) was used (control miRNA, negative control) in place of hsa-miR-3065-3p.

For series [2], the system named is human large bowel cancer cells (HT29 line). Put plainly: Drug sensitivity in combination with oxaliplatin (cell viability). Particulars: miRNA 50 nM, oxaliplatin 0-128 μM for 72 hours, compared to only oxaliplatin and to control plus oxaliplatin, FIG. 16. The procedure: A cell suspension prepared by suspending human large bowel cancer cells (HT29 line) in RPMI medium was seeded in each well of a 6-well plate at 3×10^5 cells/well, and a mixture of lipofectamin RNAiMAX Regent (final concentration in well: 0.03 μL/well) and hsa-miR-3065-3p (final concentration in well: 50 nM) was further added, followed by culture for 1 day. Then, cells were recovered and suspended in RPMI medium, and were seeded in each well of a 96-well plate at 3×10^3 cells/well, followed by culture for 2 days. Thereafter, oxaliplatin was added to each well at 0, 2, 4, 8, 16, 32, 64 or 128 μM, followed by additional culture for 72 hours. After culture, living cells in each well were counted by GloMax-Multi Detection System (Promega Corporation). When the number of living cells under a condition where oxaliplatin was not added was 100%, the ratio of the number of living cells under each condition (cell viability, %) was determined. In addition, tests were also performed under the same condition on a case where a control miRNA (SEQ ID NO: 9) was used (control miRNA, negative control) in place of hsa-miR-3065-3p, and on a case where no miRNA was added.

Series [3] deals with human large bowel cancer cells (DLD1 line). Nature of the series: Wound healing assay. Particulars: 20 pmol/well, wound area at 24 and 48 hours, compared to the negative control, FIG. 17. The protocol: Wound healing assay was performed using Culture-Insert (NIPPON Genetics Co, Ltd). In each well of a 24-well plate, 70 μl of cell suspension (4.9×10^4 cells/well) prepared by suspending human large bowel cancer cells (DLD1 line) in RPMI medium (containing 10% by volume FBS) and an insert that could create a constant gap of 0.5±0.05 mm in width between cells were placed, followed by culture for 1 day, so that a single layer of cells and an area where there is no cell (wound area) corresponding to the gap were formed at the bottom of the well. Then, the insert and culture supernatant were remove, 500 μl of DMEM medium (serum free) was added to each well, and further a mixture of lipofectamin RNAiMAX Regent (final concentration in well: 2 μl/well) and hsa-miR-3065-3p (final concentration in well: 20 pmol/well) was added, followed by culture for 1 day. Thereafter, the medium was changed to RPMI medium (containing 10% by volume FBS), followed by culture for 48 hours. The culture using RPMI medium (containing 10% by volume FBS) had the medium replaced with a fresh medium at 24 hours after the start of culture. The area of wound area was determined at 0, 24 and 48 hours from the start of culture using RPMI medium (containing 10% by volume FBS). When the wound area at 0 hour from the start of culture was 100%, the percentages of wound area at 24 and 48 hours after culture were determined. […]

Series [4] shares this test system. Nature of the series: Infiltration assay (Matrigel Invasion Chambers). The conditions noted are these: 20 pmol/cell culture insert, 48 hours, versus control miRNA, FIG. 15. The protocol: The infiltration assay was performed using BD Matrigel Invasion Chambers, 12 Chambers per 24-Well Plate (BD Biosciences). First, […] of RPMI medium (containing 10% by volume FBS) was added in the wells of a companion plate. Furthermore, in a cell culture insert having a Matrigel basement membrane, a mixture of human large bowel cancer cells (DLD1 line) at 1×10^6 cells/well, lipofectamin RNAiMAX Regent (final concentration in the cell culture insert: 2 μL/ml) and hsa-miR-3065-3p (final concentration in the cell culture insert: 20 pmol/cell culture insert) was added, followed by culture for 48 hours. Thereafter, the cell culture insert was removed, and cells adhering to the outside of the Matrigel basement membrane were fixed with formalin and then stained with hematoxylin to count the cells migrated to the outside of the Matrigel basement membrane. In addition, tests were also performed under the same condition on a case where a control miRNA (SEQ ID NO: 9) was used (control miRNA, negative control) in place of hsa-miR-3065-3p.

In the case of “hsa-miR-3065-3p: human-derived miR-3065-3p; base sequence set forth in SEQ ID NO: 2 as mature miRNA (UCAGCACCAGGAUAUUGUUGGAG; listed as RNA, chemistry not given here; listed as Homo sapiens)”, the “colony forming ability of human large bowel cancer cells” value in series [1] was “able to inhibit the colony forming ability”. In addition, the “number of living cells (cell viability) on treatment with both hsa-miR-3065-3p and oxaliplatin” value in series [2] is “significantly reduce the number of living cells”. In series [3], the “decrease in wound area (migration)” value is “significantly suppressed”. The “migration ability of human large bowel cancer cells (cells migrated to the outside of the Matrigel basement membrane)” value in series [4] is on record as “able to inhibit the migration ability”.
